Results published in US20260102415A1, “COMPOSITIONS COMPRISING PRODRUGS OF HYDROXAMATE-BASED COMPOUNDS AND METHODS OF MAKING AND USING SAME” (Duke University, priority 2022, published 2026).
Converted amounts (≈) assume the structure as drawn.

How the values were obtained:
[1] = Vehicle (Captisol or beta-cyclodextrin) concentration needed to formulate the 100 mg/kg dose; format: physicochemical; conditions: dose level 100 mg/kg
Protocol: LPC-233 required 30-40% Captisol or beta-cyclodextrin to reach the dose level of 100 mg/kg and beyond. These concentrations of vehicle caused vehicle-related side effects and cannot be used in clinical formulations.

[2] = test system: Acinetobacter baumannii (ATCC 19606); test: Acinetobacter baumannii sepsis model in mice (survival); format: in vivo; conditions: CD-1 mice; for mice surviving during treatment and post-treatment observation periods: dose response study; for overall survival: separate experiment comparing prodrug with parent compound
Protocol: A mice model was created to test the efficacy of LPC-233-Phos-Pro in an Acinetobacter baumannii sepsis model.
Method: Overnight culture of A. baumannii 19606 was inoculated into 50 mL fresh LB with 1:100 dilution. The culture was incubated at 37° C. with vigorous shaking until OD600 reached ˜0.5. The bacteria were harvested, washed, and re-suspended in PBS pH 7.4 buffer. Each CD-1 mouse at the age of 6-7 weeks was injected with about […] Acinetobacter baumannii (ATCC 19606) in a volume of 200 μL intraperitoneally. There were ten mice in each group (five male and five female). About 2 hours post infection, 200 μL of vehicle (5% Captisol dissolved in saline), or LPC-233-Phos-Pro in 5% Captisol at specified concentrations were injected intraperitoneally. 12 hours later, 200 μL of vehicle control or LPC-233-Phos-Pro solutions at desired concentrations were administrated via intraperitoneal injections every 12 hours (Q12H) for a total of ten IP injections. The mice were monitored for an additional 10 days and the percentages of survival were recorded. The same procedure was used in a separate experiment to compare the efficacy of LPC-233 and LPC-233-Phos-Pro.

[3] = Maximum solubility in 5% Captisol by UV-Vis spectroscopy; format: physicochemical; conditions: aqueous with cosolvent or surfactant or cyclodextrin, thermodynamic from solid, absorption at 290 nm, triplicate, averaged
Protocol: Maximum solubility of LPC233-phosphate-ProDrug was determined using UV-Vis spectroscopy. First, a sample of LPC-233-Phos-Pro in 5% Captisol was prepared at 1 mg/mL by dissolving 0.7 mg of compound in 700 μL of 5% Captisol and sonicating for 30 minutes. The sample was then serial diluted 2-fold to generate standard solutions ranging from 0.0625-1 mg/mL. The absorption of each sample at 290 nm was determined via nanodrop, and the values were plotted to generate a linear standard curve of y=3.0336x+0.09 with r^2=0.998 (v=Abs290 nm, x=[drug]mg/mL). Next, a sample of LPC-233-Phos-Pro was prepared based on an assumed concentration of 300 mg/mL in 5% Captisol and allowed to sonicate for 45 minutes. The sample was then vortexed and centrifuged to pellet any undissolved compound. The supernatant was removed and diluted an initial 30× to a theoretical max concentration of 10 mg/mL. From here, the solution was serial diluted 2-fold up to 256×. The absorption of each dilution at 290 nm was measured via nanodrop and values were plotted to the standard curve. These preparations and measurements were performed in triplicate and averaged. The final maximum solubility of LPC-233-Phos-Pro in 5% Captisol was determined to be ˜260±6 mg/mL. […]

[4] = Maximum Tolerated 5-day Repeat dose in male CD-1 mice; format: in vivo; conditions: 250 mg/kg/Q12H (500 mg/kg/day) IP over 5 days, 5% Captisol
Protocol: Additionally, the Maximum Tolerated 5-day Repeat dose of LPC-233-Phos-Pro was tested in male CD-1 mice (n=3). LPC-233-Phos-Pro was prepared in 5% Captisol and 200 μL of solution was administered via IP injection every 12 hours (Q12H) at doses of 250 mg/kg/Q12H (500 mg/kg/day) over the course of 5 days. The mice were weighed daily to monitor animal survival and weight loss.

Row | Compound | Captisol or beta-cyclodextrin concentration required to reach the dose level of 100 mg/kg [1] | mice surviving during treatment and post-treatment observation periods ([2]; 30 mg/kg Q12H IP) [%] | mice surviving during treatment and post-treatment observation periods ([2]; 100 mg/kg Q12H IP) | overall survival ([2]; 100 mg/kg Q12H IP) [%] | fitted ED50 (survival) ([2]; IP infection with A. baumannii 19606, IP dosing Q12H, ten injections, in 5% Captisol, dose response study 10, 30, 100 mg/kg) [mg/kg Q12H] | solubility at 45 min [3] [mg/mL] | animal survival [4] | weight loss [4]
1 | C[C@@](O)(C(F)F)[C@H](NC(=O)c1ccc(C#CC#CC2CC2)cc1)C(=O)NOP(=O)([O-])[O-].[Na+].[Na+] [LPC-233-Phos-Pro] | 5% | 90 | all mice | 100 | 5.5 | ~260 | All mice survived | < 10 % of initial body weight
2 | C[C@@](O)(C(F)F)[C@H](NC(=O)c1ccc(C#CC#CC2CC2)cc1)C(=O)NO [LPC-233, reference compound] | 30-40% | – | – | 70 | – | ~20 (≈ 53.1 mM) | – | –
